Like-named read-outs stand apart in the source and are kept apart here. *1 amine or outer side, *2 acyl side, *3 side chain or, on linkers, in order; H or OH if unused. Where a SMILES comes first, the peptide text is derived from it. Side-chain parts run from the residue outwards. The star is where a group is joined. DOTA = O=C(O)CN1CCN(CC(=O)O)CCN(CC(=O)*)CCN(CC(=O)O)CC1; DTPA = O=C(O)CN(CCN(CC(=O)O)CC(=O)O)CCN(CC(=O)O)CC(=O)*; NH(2-(imidazol-4-yl)ethyl) = c1ncc(CCN*)[nH]1; Suc = O=C(CCC(=O)[*:2])[*:1]; X1 = NC(=S)NN=CC(=O)*

The values that follow come from US20060140858A1, “Drug pre-targeting by means of bi-specific antibodies and hapten constructs comprising a carrier peptide and the active agent(s)” (Immunomedics, Inc., priority 2002, published 2006).

A short description of series [1]: Clearance of 99m-Tc-IMP-192 in BALB/c mice. The format is in vivo.
Series [2] is described as follows: Pretargeting: 125-I-hMN-14 × 734 bsAb, 24 h later 99m-Tc-IMP-192, biodistribution. The series is classed as in vivo, Nude mice. To be noted: female, mouse, total radioactivity; for tissue uptake at 0.5 h: 30 min post peptide; for tissue uptake at 1 h: 1 h post peptide; for tissue uptake at 3 h: 3 h post peptide; for tissue uptake at 24 h: 24 h post peptide.
A short description of series [3]: Control group: 99m-Tc-IMP-192 alone. The format is in vivo, nude mice. To be noted: female, nude (Taconic NCRNU), mouse, total radioactivity.
Series [4] is classed as in vitro ADME, mouse. The source says: The peptide was monitored as described above by HPLC.
Series [5] concerns the target peptide containing a single HSG substituent and a thiol (mono HSG peptide). Nature of the series: BIAcore, mono HSG peptide coupled to a CM-5 chip. A general note: SPR reads the build-up and loss of mass on a sensor chip optically.
Series [6] concerns the target carcinoembryonic antigen (CEA) (UniProt P06731). The series can be described thus: SE-HPLC, 125I-labeled bsMAb with an excess of CEA.
The target of series [7] is DOTA-Phe-Lys(HSG)-D-Tyr-Lys(HSG)-NH2 (IMP 241). Nature of the series: in vivo pretargeting, GW-39 tumors, 3 h after 111In-IMP-241.
Series [8] addresses carcinoembryonic antigen (CEA) (UniProt P06731). The series can be described thus: immunoreactivity of 99mTc-hMN-14 Fab′; method and antigen not given.
[9] abbreviates: Cys Challenge 1 mM in 0.05 M phosphate pH 7.5 Room Temp., 1 hr.
The mark [10] stands for this setting: Saline Dilution Room Temp., 19 hr.
Setting [11] is: Saline Dilution Room Temp., […].

Sequence of carcinoembryonic antigen (CEA) (P06731 35-685 limits assumed): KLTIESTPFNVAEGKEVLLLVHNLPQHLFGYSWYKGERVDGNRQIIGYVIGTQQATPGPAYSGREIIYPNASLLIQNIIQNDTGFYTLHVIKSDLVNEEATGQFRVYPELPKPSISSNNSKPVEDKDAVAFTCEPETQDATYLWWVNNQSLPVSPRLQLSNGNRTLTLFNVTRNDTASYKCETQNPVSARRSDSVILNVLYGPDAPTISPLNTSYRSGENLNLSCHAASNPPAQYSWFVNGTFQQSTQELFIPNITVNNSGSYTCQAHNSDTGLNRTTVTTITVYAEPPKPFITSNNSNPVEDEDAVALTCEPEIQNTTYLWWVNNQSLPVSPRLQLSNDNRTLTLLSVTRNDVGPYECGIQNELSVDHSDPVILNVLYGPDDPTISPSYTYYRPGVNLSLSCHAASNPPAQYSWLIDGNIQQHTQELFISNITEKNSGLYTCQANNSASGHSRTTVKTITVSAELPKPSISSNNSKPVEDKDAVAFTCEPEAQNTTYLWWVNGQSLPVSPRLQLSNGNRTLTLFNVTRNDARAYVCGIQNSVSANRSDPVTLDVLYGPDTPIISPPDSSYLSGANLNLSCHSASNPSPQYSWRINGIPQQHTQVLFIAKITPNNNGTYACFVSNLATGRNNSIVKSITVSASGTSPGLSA

Regarding `CC(=O)N[C@@H](CCCCNC(=O)CN(CCN(CCN(CC(=O)O)CC(=O)O)CC(=O)O)CC(=O)O)C(=O)N[C@@H](Cc1ccc(O)cc1)C(=O)N[C@@H](CCCCNC(=O)CN(CCN(CCN(CC(=O)O)CC(=O)O)CC(=O)O)CC(=O)O)C(=O)N[C@@H](CCCCNC(=O)[C@H](CS)NC(=O)C=NNC(N)=S)C(N)=O` [IMP 192, Ac-Lys(DTPA)-Tyr-Lys(DTPA)-Lys(Tscg-Cys)-NH2] (Ac-K(DTPA)YK(DTPA)K([Cys-X1])-NH2), the tissue uptake at 2 h in [1] (BALB/c, mouse, large intestine, total radioactivity, Lg.Int., 2 h) is 1.53 ± 0.45 %ID/g; in series [1] (BALB/c, mouse, small intestine, total radioactivity, Small int, 2 h), 0.6 ± 0.06 %ID/g; in series [1] (BALB/c, mouse, total radioactivity, Blood, 2 h), 0.21 ± 0.03 %ID/g; in series [1] (BALB/c, mouse, total radioactivity, Liver, 2 h) it was 0.22 ± 0.16 %ID/g; in [1] (BALB/c, mouse, total radioactivity, Muscle, 2 h), 0.05 %ID/g; in series [1] (BALB/c, mouse, Kidney, 2 h), 4.05 ± 0.6 %ID/g. For the same molecule, the tissue uptake at 2 h in [1] (BALB/c, mouse, Lungs, 2 h) was determined as 0.29 ± 0.08 %ID/g; in series [1] (BALB/c, mouse, Spleen, 2 h), 0.09 ± 0.3 %ID/g. The tissue uptake at 4 h in series [1] (BALB/c, mouse, large intestine, total radioactivity, Lg.Int., 4 h) worked out at 1.58 ± 0.7 %ID/g; in series [1] (BALB/c, mouse, small intestine, total radioactivity, Small int, 4 h), 0.21 ± 0.09 %ID/g; in series [1] (BALB/c, mouse, total radioactivity, Blood, 4 h) it was 0.14 ± 0.04 %ID/g; in series [1] (BALB/c, mouse, total radioactivity, Muscle, 4 h), 0.03 ± 0.01 %ID/g; in series [1] (BALB/c, mouse, total radioactivity, Stomach, 4 h), 0.27 ± 0.33 %ID/g; in series [1] (BALB/c, mouse, Kidney, 4 h), 3.21 ± 0.99 %ID/g. For the same molecule, the tissue uptake at 4 h in series [1] (BALB/c, mouse, Liver, 4 h) was 0.09 ± 0.02 %ID/g; in series [1] (BALB/c, mouse, Lungs, 4 h), 0.19 ± 0.04 %ID/g; in [1] (BALB/c, mouse, Spleen, 4 h), 0.05 ± 0.02 %ID/g. Also, the tissue uptake at 24 h in [1] (BALB/c, mouse, large intestine, total radioactivity, Lg.Int., 24 h) was 0.15 ± 0.14 %ID/g; in series [1] (BALB/c, mouse, small intestine, total radioactivity, Small int, 24 h) it was 0.03 ± 0.01 %ID/g; in series [1] (BALB/c, mouse, total radioactivity, Blood, 24 h), 0.05 ± 0.01 %ID/g; in [1] (BALB/c, mouse, total radioactivity, Stomach, 24 h), 0.02 ± 0.01 %ID/g; in series [1] (BALB/c, mouse, Kidney, 24 h), 1.21 ± 0.08 %ID/g; in [1] (BALB/c, mouse, Liver, 24 h), 0.04 %ID/g. For the same molecule, the tissue uptake at 24 h in series [1] (BALB/c, mouse, Lungs, 24 h) amounted to 0.05 %ID/g; in [1] (BALB/c, mouse, Spleen, 24 h), 0.03 ± 0.01 %ID/g; in series [2] (NCRNU nude, Tumor) it was 8.7 ± 3.3 %ID/g; in series [2] (nude (Taconic NCRNU), Blood), 0.6 ± 0.2 %ID/g; in series [2] (nude (Taconic NCRNU), Kidney), 1.2 ± 0.3 %ID/g; in series [2] (nude (Taconic NCRNU), Lungs) it was 0.3 ± 0.1 %ID/g. Also, the tissue uptake at 1 h in [1] (BALB/c, mouse, small intestine, total radioactivity, Small int, 1 h) amounted to 1.37 ± 0.75 %ID/g; in [1] (BALB/c, mouse, total radioactivity, Blood, 1 h), 0.3 ± 0.09 %ID/g; in series [1] (BALB/c, mouse, total radioactivity, Liver, 1 h), 0.27 ± 0.18 %ID/g; in [1] (BALB/c, mouse, total radioactivity, Muscle, 1 h) it was 0.1 ± 0.06 %ID/g; in series [1] (BALB/c, mouse, Kidney, 1 h), 4.16 ± 0.75 %ID/g; in series [1] (BALB/c, mouse, Lungs, 1 h) it was 0.5 ± 0.23 %ID/g. The tissue uptake at 1 h in [1] (BALB/c, mouse, Spleen, 1 h) is 0.08 ± 0.01 %ID/g; in series [2] (NCRNU nude, Liver) it was 0.9 ± 0.2 %ID/g; in series [2] (NCRNU nude, Spleen) it was 0.8 ± 0.2 %ID/g; in [2] (NCRNU nude, Tumor) it was 14.3 ± 3.6 %ID/g; in series [2] (nude (Taconic NCRNU), Blood), 3.5 ± 0.9 %ID/g; in series [2] (nude (Taconic NCRNU), Kidney), 4.6 ± 0.7 %ID/g. The tissue uptake at 1 h in series [2] (nude (Taconic NCRNU), Lungs) turned out to be 3.6 ± 1.9 %ID/g. Also, the excreta dose per gram or mL at 1 h in [1] (BALB/c, mouse, total radioactivity, Urine, 1 h) came out at 169 ± 95 %ID/g. In addition, in series [1] (BALB/c, mouse, total radioactivity, Urine, 2 h), the excreta dose per gram or mL at 2 h is 57 ± 15 %ID/g. Also, the excreta dose per gram or mL at 4 h in [1] (BALB/c, mouse, total radioactivity, Urine, 4 h) worked out at 6.3 ± 4.53 %ID/g. Further, the excreta dose per gram or mL at 24 h in series [1] (BALB/c, mouse, total radioactivity, Urine, 24 h) came to 0.2 ± 0.02 %ID/g. Further, the “% ID/g” value in [1] (Muscle, 24 h) is recorded as 0.00 ± 0.0 % ID/g. In addition, the “in vivo stability (activity excreted in urine, SE-HPLC with antibody)” value in series [1] (urine from a mouse in a pretargeting experiment) is “appears to be the intact peptide”. For the same molecule, the tissue uptake at 0.5 h amounted to 9.9 ± 6.1 %ID/g in series [2] (NCRNU nude, Kidney); 1.4 ± 0.3 %ID/g in series [2] (NCRNU nude, Liver); 1.2 ± 0.4 %ID/g in [2] (NCRNU nude, Spleen); 11.4 ± 4.8 %ID/g in series [2] (NCRNU nude, Tumor); 4.3 ± 1.2 %ID/g in [2] (nude (Taconic NCRNU), Blood); 4.2 ± 3.4 %ID/g in series [2] (nude (Taconic NCRNU), Lungs). Further, the tissue uptake at 3 h stood at 0.6 ± 0.1 %ID/g in [2] (NCRNU nude, Liver); 0.5 ± 0.1 %ID/g in [2] (NCRNU nude, Spleen); 12.6 ± 5.2 %ID/g in [2] (NCRNU nude, Tumor); 1.7 ± 0.4 %ID/g in series [2] (nude (Taconic NCRNU), Blood); 2.4 ± 0.5 %ID/g in series [2] (nude (Taconic NCRNU), Kidney); 1 ± 0.3 %ID/g in series [2] (nude (Taconic NCRNU), Lungs). The tissue uptake at 3 h in [3] (Kidney) came to 2.6 ± 0.9 %ID/g; in [3] (Liver) it was 0.3 ± 0.07 %ID/g; in series [3] (Spleen), 0.1 ± 0.05 %ID/g. The “Origin (ITLC 24 hr Saturated NaCl)” value (Cys Challenge) came to 91.3% Origin, the “Origin (ITLC 24 hr Saturated NaCl)” value (Kit Room Temp.) was determined as 94% Origin and the “Origin (ITLC 24 hr Saturated NaCl)” value (Saline Dilution Room Temp.) was determined as 97% Origin. The “Solvent Front (ITLC 24 hr Saturated NaCl)” value stood at 7.4% Solvent (Cys Challenge), 5% Solvent Front (Kit Room Temp.) and 2.3% Solvent (Saline Dilution Room Temp.). Besides, the “Peptide (HPLC)” value is, setting by setting: under setting [9], 98% Peptide; (Cys Challenge, 19.5 hr) 89% Peptide; (Kit Room Temp., 3 hr) 99% Peptide; (Kit Room Temp., 21 hr) 95% Peptide; (Kit Room Temp., Initial Label) 99% Peptide; under setting [10], 96% Peptide. Moreover, the “Peptide (HPLC)” value under setting [11] is listed as 99% Peptide. The “Void Vol (HPLC)” value is, setting by setting: under setting [9], 2% Void Vol; (Cys Challenge, 19.5 hr) 11% Void Vol; (Kit Room Temp., 3 hr) 1% Void Vol; (Kit Room Temp., 21 hr) 5% Void Vol; (Kit Room Temp., Initial Label) 1% Void Vol; under setting [10], 4% Void Vol. Also, the “Void Vol (HPLC)” value under setting [11] stood at 1% Void Vol.
Regarding `NC(=O)[C@H](CCCCNC(=O)CNC(=O)CCC(=O)NCCc1cnc[nH]1)NC(=O)[C@H](Cc1ccc(O)cc1)NC(=O)[C@H](CCCCNC(=O)CNC(=O)CCC(=O)NCCc1cnc[nH]1)NC(=O)[C@H](Cc1ccccc1)NC(=O)CN1CCN(CC(=O)O)CCN(CC(=O)O)CCN(CC(=O)O)CC1` [IMP 237, DOTA-Phe-Lys(HSG)-Tyr-Lys(HSG)-NH2] ({DOTA}-FK([Gly-Suc-NH(2-(imidazol-4-yl)ethyl)])YK([Gly-Suc-NH(2-(imidazol-4-yl)ethyl)])-NH2), in series [4], the “converted to the shorter retention time peak” value is on record as “about 70%”.
As to “hMN-14 × m679 F(ab′)2 bsMAb (bispecific antibody)”, the Kd in series [5] came out at 1.5 nM. The percent of radiolabeled product shifting to a higher molecular weight in series [6] was greater than 90%. In addition, in series [7], the ratio of the % ID/g of the peptide compared to the bsMAb in the tumor came to 3.9.

B1: humanized MN-14 (hMN-14) Fab′-SH, 99mTc-labeled (Fab, INN chains, looked up, V domains shown)
VH: EVQLVESGGGVVQPGRSLRLSCSASGFDFTTYWMSWVRQAPGKGLEWIGEIHPDSSTINYAPSLKDRFTISRDNAKNTLFLQMDSLRPEDTGVYFCASLYFGFPWFAYWGQGTPVTVSS
VL: DIQLTQSPSSLSASVGDRVTITCKASQDVGTSVAWYQQKPGKAPKLLIYWTSTRHTGVPSRFSGSGSGTDFTFTISSLQPEDIATYYCQQYSLYRSFGQGTKVEIK
modifications: Fab′ 99mTc label
In [8], B1 showed an immunoreactive fraction of 92%.

What is called tissue uptake is the share of the injected amount in each gram of the tissue. By Kd is commonly meant the constant that tells how readily two partners part at equilibrium. A low value points to a tighter complex.
